Where no end group is shown, it is not given here.
How the values were obtained:
[1] = molecular target: T1, human HSP70/HSP40 (Homo sapiens, UniProt P0DMV8); experiment: Refolding luciferase assay (HSP70 chaperone activity); assay type: biochemical; conditions: A8 5 μM to 50 μM, 1 hour at 25° C., purified recombinant proteins
T1 construct: purchased StressGen (EnzoLife)
Protocol: FIG. 3: A8 blocks HSP70/TLR2 association. (A) Immunoprecipitation of TLR2 in the presence of increasing concentrations of A8 (from 0.3 μM to 1.8 μM) was followed by HSP70 immunoblotting. IP control, no relevant IgG antibody. (B) Denatured luciferase (D) was incubated in the absence or presence of human HSP70 and, when indicated, increasing concentrations of A8 (C1=5 μM; C2=15 μM; C3=25 μM and C4=50 μM) for 1 hour at 25° C. Following incubation, the luciferase substrate D-luciferin was added and within 10 minutes the total light units emitted were collected for 10 seconds at 560 nm using a Wallac (Victor 3) spectrophotometer. *, p<0.05. (C) Biolayer interferometry to determine association and dissociation curves of HSP70 (concentration range from 2.5 μM to 156 nM) with biotinylated TRL2 immobilized on streptavidin sensor tips. (D) Association and dissociation curves of HSP70 (concentration range from 50 nM to 1.28 nM) with biotinylated A8 immobilized on streptavidin sensor tips. Curves in C and D represent mean values of triplicate measurements for each concentration. […]

[2] = tested on: primary MDSC; experiment: Primary MDSC proliferation (Cellometer-mini); assay type: cell-based, mouse; conditions: exosomes from B16F10, A8 16 μM, 24 hours
Protocol: FIG. 9: TDE and A8 effects on MSC2 and MDSC proliferation. A) Dynamic monitoring of in vitro MSC2 cell proliferation using the RTCA-DP system (Real-Time Cell Analyzer). MSC2 were incubated or not for 11 h with exosomes (from B16F10) in the absence or presence of A8 (16 μM and 32 μM). Cell index values were measured every 30 seconds (n=3). B) MSC2 were incubated or not for 24 h with exosomes (from B16F10) in the absence or presence of A8 (16 μM). Then, cells were labelled with BrdU and incorporation was determined by flow cytometry (n=3). C) MDSC were treated with exosomes (from B16F10) in the absence or presence of A8 ([…]) for 24 hours and then analyzed for proliferation by Cellometer-mini. *p<0.05.
MSC2 cells proliferation were analyzed by to different techniques. First, MSC2 (1·10^4) were seeded onto 16-well plates with medium containing 10% FBS and incubated for 34 hours. […] Into each well of the micro-electronic sensor transendothelial electric resistance (TER) was measured by xCELLigence real time cell analyzer DP system (Roche). TER was measured every 30 s and then normalized to the initial value. […] MDSC proliferation was analyzed by cell counting. MDSC cells (1·10^6) from spleen of naive mice (see MDSC isolation section) were treated or not with exosomes (from B16F10) in the absence or presence of A8 (16 μM) for 24 hours and then analyzed for viability by Cellometer-mini (Ozyme).

T1 sequence (P0DMV8 whole entry): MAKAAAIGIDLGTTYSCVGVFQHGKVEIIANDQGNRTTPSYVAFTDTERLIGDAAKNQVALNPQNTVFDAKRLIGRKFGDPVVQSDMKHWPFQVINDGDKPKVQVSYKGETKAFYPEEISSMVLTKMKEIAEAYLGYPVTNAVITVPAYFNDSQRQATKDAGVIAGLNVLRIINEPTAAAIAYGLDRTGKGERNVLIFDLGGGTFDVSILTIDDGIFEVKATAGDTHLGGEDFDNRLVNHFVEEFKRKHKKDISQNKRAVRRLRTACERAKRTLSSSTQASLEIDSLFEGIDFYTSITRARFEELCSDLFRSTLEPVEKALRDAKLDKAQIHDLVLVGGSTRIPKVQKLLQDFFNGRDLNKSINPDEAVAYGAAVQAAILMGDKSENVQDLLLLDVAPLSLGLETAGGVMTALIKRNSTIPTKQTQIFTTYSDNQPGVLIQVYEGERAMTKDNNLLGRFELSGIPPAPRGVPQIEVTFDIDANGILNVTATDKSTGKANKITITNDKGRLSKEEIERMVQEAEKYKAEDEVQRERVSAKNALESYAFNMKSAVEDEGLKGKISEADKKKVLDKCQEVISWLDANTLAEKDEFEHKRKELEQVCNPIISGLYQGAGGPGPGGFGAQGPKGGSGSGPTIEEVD

HSP70 chaperone activity (luciferase refolding) [1]: blocked, in a dose-dependent manner
Sequence: SPWPRPTY [Aptamer A8, SPWPRPTY]
TDE-induced proliferation of primary MDSC [2]: blocked

Reference: US20170131285A1, “METHODS AND COMPOSITIONS FOR DIAGNOSING, MONITORING AND TREATING CANCER” (INSERM (Institut National de la Sante et de la Recherche …, priority 2014, published 2017)
